In patent US9688651B2, “Geranyl geranyl acetone analogs and uses thereof” (NYKEN Holding B.V., priority 2012, dated 2017):

Assays:
HSP70 [1] = assay: HSP70 protein boosting in HL-1 cardiomyocytes after mild heat shock (Western blot); assay type: cell-based, mouse; settings: for induction of mammalian HSP70 protein expression: HL-1, mild heat shock, 10 μM, 6 hours; for HSP boosting HL-1 cardiomyocytes Protein HSP70: mild heat shock 44°C 10 min, then compound 10 μM for 6 hours, Western blot
Protocol: HL-1 atrial myocytes, a cell line derived from adult mouse atria were obtained from Dr. William Claycomb (Louisiana State University, New Orleans, La., USA). The myocytes were maintained in Complete Claycomb Medium (JRH, UK) supplemented with 100 μM norepinephrine stock (consisting of 10 mM norepinephrine (Sigma, The Netherlands) dissolved in 0.3 mM L-ascorbic acid (Sigma)), 4 mM L-glutamine (Gibco, The Netherlands) and 10% FBS (Sigma). The myocytes were cultured in flasks coated with 0.02% gelatin (Sigma), in a 5% CO2 atmosphere at 37° C.
HL-1 cardiomyocytes were subjected to a mild heat shock of 44° C. for 10 minutes. After a recovery of 10 minutes (37 degrees 5% CO2), compounds were added in a final concentration of 10 μM (dissolved in DMSO, final concentration 0.1%). To control myocytes, 0.1% DMSO was added. After six hours the cells were lysed in RIPA buffer and used for Western blotting as described previously.^3, 10
(§1) Western-blot analysis was performed as described previously^3, 10. Equal amount of protein in SDS-PAGE sample buffer was sonicated before separation on 10% PAA-SDS gels. After transfer to nitrocellulose membranes (Stratagene, The Netherlands), membranes were incubated with primary antibodies against HSP25 (Stressgen, The Netherlands, SPA-801, 1:1000), HSP27 (Stressgen, SPA-800, 1:1000), HSP70 (Stressgen, SPA-810, 1:1000), GAPDH (Affinity Reagents, The Netherlands) or PARP (Santa Cruz, The Netherlands, sc-7150, 1:500). Horseradish peroxidase-conjugated anti-mouse or anti-rabbit (Santa-Cruz Biotechnology, The Netherlands) was used as secondary antibody. Signals were detected by the ECL-detection method (Amersham, The Netherlands) and quantified by densitometry using GeneTools software from Syngene (The Netherlands).
Compounds were also screened for HSP70 boosting effects. Hereto, HL-1 cardiomyocytes were first subjected to a mild heat shock which activates the Heat Shock Factor. After the mild heat shock, compound (10 μM) was added to the medium of HL-1 cardiomyocytes for 6 hours, followed by determination of the HSP70 amount.

HSP70 [2] = assay: HSP70 mRNA (qPCR) in HL-1 cardiomyocytes after mild heat shock; assay type: cell-based, mouse; settings: then compound 10 μM for 6 hours
Protocol: (§2) HL-1 cardiomyocytes were subjected to a mild heat shock of 44° C. for 10 minutes. After a recovery of 10 minutes (37 degrees 5% CO2), compounds were added in a final concentration of 10 μM (dissolved in DMSO, final concentration 0.1%). To control myocytes, 0.1% DMSO was added. After six hours the cells were lysed in RIPA buffer and used for Western blotting as described previously.^3, 10 Compounds were also screened for their ability to upregulate HSP gene expression. Hereto, HL-1 cardiomyocytes were first subjected to a mild heat shock which activates the Heat Shock Factor. After the mild heat shock, compound (10 μM) was added to the medium of HL-1 cardiomyocytes for 6 hours, followed by determination of HSP70, HSP25, HSP90 and HSP40 which are targets of the heat shock factor 1 (HSF1) transcription factor. In addition, we determined mRNA levels of the gene encoding the glucose-responsive protein 78 (Grp78) which is HSF1-independent.

HSP25 = HSP25 mRNA (qPCR) in HL-1 cardiomyocytes after mild heat shock; assay type: cell-based, mouse; set-up: key: 0 = no induction HSP levels; + = 2-10-fold induction; ++ = 10-30-fold induction; +++ = > 30-fold induction; settings: then compound 10 μM for 6 hours
Protocol: as §2

HSP90 = HSP90 mRNA (qPCR) in HL-1 cardiomyocytes after mild heat shock; assay type: cell-based, mouse; settings: then compound 10 μM for 6 hours
Protocol: as §2

HSP40 = HSP40 mRNA (qPCR) in HL-1 cardiomyocytes after mild heat shock; assay type: cell-based, mouse; settings: then compound 10 μM for 6 hours
Protocol: as §2

[3] = system: glucose-responsive protein 78 (Grp78); assay: Grp78 mRNA (qPCR, HSF1-independent) in HL-1 cardiomyocytes; assay type: cell-based, mouse; set-up: key to HSP boosting HL-1 cardiomyocytes mRNA (qPCR) Grp78 Not HSF1: 0 = no induction HSP levels; + = 2-10-fold induction; ++ = 10-30-fold induction; +++ = > 30-fold induction; settings: for upregulation of Grp78 mRNA: HL-1, mild heat shock, 10 μM, 6 hours; for HSP boosting HL-1 cardiomyocytes mRNA (qPCR) Grp78 Not HSF1: mild heat shock, then compound 10 μM for 6 hours
Protocol: as §2

[4] = system: HSP70, HSP25, HSP90 and HSP40; assay: Upregulation of HSP gene expression (HSF1 targets) in HL-1 cardiomyocytes; assay type: cell-based, mouse; settings: HL-1, mild heat shock, 10 μM, 6 hours
Protocol: as §2

[5] = system: MCF-7 breast cancer cells; assay: MCF-7 cell death, ratio death/living cells (trypan blue); assay type: cell-based, human; set-up: key to Cell Death MCF-7 cancer cells Death/living 100 μM: 0 = no dead cells; + = P < 0.05; ++ = P < 0.01; +++ = P < 0.001; settings: 100 μM; 16-20 hours; trypan blue
Protocol: MCF-7 breast cancer cells were cultured in DMEM supplemented with 10% FCS. […] Ratio death and living cells was determined by using trypan blue staining of death cells. The cell pellets were lysed in RIPA buffer and used for Western blot analysis.
Since we observed that some compounds aggravate tachypacing-induced contractile dysfunction, we next investigated if these compounds can induce programmed cell death in a human breast cancer cell-line MCF-7. […] In total 28 compounds were tested for cell death. […] GGA was used as a control as well as non-treated MCF-7 cells. […] The findings indicate that GGA-like compounds which aggravate heart failure can induce programmed cell death in MCF-7 breast cancer cell-line.

HSP27 = HSP27 Western blot in MCF-7 cells; assay type: cell-based, human; settings: MCF-7 lysate, 16-20 hours
Protocol: (§3) MCF-7 breast cancer cells were cultured in DMEM supplemented with 10% FCS. Test compounds were added to the medium in a final concentration of […] for 16-20 hours. Ratio death and living cells was determined by using trypan blue staining of death cells. The cell pellets were lysed in RIPA buffer and used for Western blot analysis.
as §1

HSP70 [6] = assay: HSP70 Western blot in MCF-7 cells; assay type: cell-based, human; set-up: key: + = P < 0.05; ++ = P < 0.01; +++ = P < 0.001; settings: MCF-7 lysate, 16-20 hours
Protocol: as §3, §1

PARP = PARP cleavage in MCF-7 cells (Western blot); assay type: cell-based, human; set-up: key to Cell Death MCF-7 cancer cells PARP: 0 = no dead cells; + = P < 0.05; ++ = P < 0.01; +++ = P < 0.001; settings: MCF-7 lysate, Western blot, 16-20 hours
Protocol: as §3, §1
Since we observed that some compounds aggravate tachypacing-induced contractile dysfunction, we next investigated if these compounds can induce programmed cell death in a human breast cancer cell-line MCF-7. Hereto, MCF-7 cells were incubated for 16 hours with 10 μM of a test compound after which the number of death and living cells was determined. In total 28 compounds were tested for cell death. […] GGA was used as a control as well as non-treated MCF-7 cells. […] The findings indicate that GGA-like compounds which aggravate heart failure can induce programmed cell death in MCF-7 breast cancer cell-line.

HSP70 [7] = assay: Hsp70 induction in murine proximal tubule (MPT) cells (Western blot); assay type: cell-based; settings: 40 μM, 5 hours, outperformed positive control GGA
Protocol: Murine proximal tubule (MPT) cells were isolated and cultured as described previously (Borkan et al. Heat stress ameliorates ATP depletion-induced sublethal injury in mouse proximal tubule cells. Am. J. Physiol. 1997; F347-55).
The MPT cells were exposed to 40 μM of compound for 5 hours, after which the cells were harvested in RIPA buffer followed by Western blotting.
For Western-blot analysis, equal amount of protein in SDS-PAGE sample buffer was separated on 10% PAA-SDS gels. After transfer to nitrocellulose membranes (Stratagene, USA), membranes were incubated with primary antibodies against HSP70 (Enzo C92F3A/StressGen SP810) or beta-actin (Sigma A541). Horseradish peroxidase-conjugated anti-mouse or anti-sheep (Jackson ImmunoRes) was used as secondary antibody. Signals were detected by the ECL-detection method (Amersham).

SMILES | induction of mammalian HSP70 protein expression (HSP70 [1]) | HSP boosting HL-1 cardiomyocytes mRNA (qPCR) HSP 70 (HSP70 [2]) | HSP boosting HL-1 cardiomyocytes mRNA (qPCR) HSP 25 (HSP25) | HSP boosting HL-1 cardiomyocytes mRNA (qPCR) HSP 90 (HSP90) | HSP boosting HL-1 cardiomyocytes mRNA (qPCR) HSP 40 (HSP40) | upregulation of Grp78 mRNA [3] | HSP boosting HL-1 cardiomyocytes mRNA (qPCR) Grp78 Not HSF1 [3] | induction of HSP gene expression [4] | Cell Death MCF-7 cancer cells Death/living 100 μM [5] | Cell Death MCF-7 cancer cells HSP 27 (HSP27) | Cell Death MCF-7 cancer cells HSP 70 (HSP70 [6]) | Cell Death MCF-7 cancer cells PARP (PARP) | HSP boosting HL-1 cardiomyocytes Protein HSP70 (HSP70 [1]) | induction of HSP70 expression in renal (MPT) cells (HSP70 [7])
CCOC(=O)C(Cc1ccccc1)C(=O)CC/C=C(\C)CCC=C(C)C (stereo not shown) [Compound 23] | potent inducers | ++ (++ = 10-30-fold induction) | + (+ = 2-10-fold induction) | + (+ = 2-10-fold induction) | + (+ = 2-10-fold induction) | no upregulation | 0 | strong inducers | – | – | – | – | – | –
CC(=O)CC(=O)CC/C=C(\C)CCC=C(C)C [Compound 28, (E)-8,12-Dimethyltrideca-7,11-Diene-2,4-Dione] | potent inducers | + (+ = 2-10-fold induction) | + (+ = 2-10-fold induction) | + (+ = 2-10-fold induction) | + (+ = 2-10-fold induction) | no upregulation | 0 | strong inducers | 0 | ++ (++ = P < 0.01) | 0 | 0 | – | –
CC(C)=CCC/C(C)=C/CNC(=O)CCC(=O)O [Compound 46] | potent inducers | + (+ = 2-10-fold induction) | ++ (++ = 10-30-fold induction) | ++ (++ = 10-30-fold induction) | + (+ = 2-10-fold induction) | no upregulation | 0 | strong inducers | – | – | – | – | ++ (++ = 10-30-fold induction) | strong inducers
CC(C)=CCC/C(C)=C/CNS(=O)(=O)C(F)(F)F [Compound 52] | potent inducers | + (+ = 2-10-fold induction) | + (+ = 2-10-fold induction) | + (+ = 2-10-fold induction) | + (+ = 2-10-fold induction) | no upregulation | 0 | strong inducers | – | – | – | – | – | strong inducers
CC(C)=CCC/C(C)=C/CCc1cc(O)n[nH]1 [Compound 62, (E)-5-(4,8-dimethylnona-3,7-dien-1-yl)-1H-pyrazol-3-ol] | potent inducers | + (+ = 2-10-fold induction) | 0 | + (+ = 2-10-fold induction) | + (+ = 2-10-fold induction) | no upregulation | 0 | strong inducers | – | – | – | – | ++ (++ = 10-30-fold induction) | strong inducers
CCOC(=O)C(C)(C)C(=O)CC/C=C(\C)CCC=C(C)C [Compound 76, (E)-ethyl 2,2,7,11-tetramethyl-3-oxododeca-6,10-dienoate] | potent inducers | +++ (+++ = > 30-fold induction) | ++ (++ = 10-30-fold induction) | ++ (++ = 10-30-fold induction) | + (+ = 2-10-fold induction) | no upregulation | 0 | strong inducers | – | – | – | – | +++ (+++ = > 30-fold induction) | –
